Results as given in patent US11980648B2, “Compositions including ginsenoside 20(S)-Rg3 and methods of using ginsenoside 20(S)-Rg3 to inhibit alpha herpesvirus” (MIDDLE TENNESSEE STATE UNIVERSITY, priority 2020, dated 2024).
Several values for one entry are separate records, joined by “and”; a condition that tells them apart may be missing. Identical values can stand only once.

Tests used:
HSV-1 [1] = experiment: Virus inhibition, HSV-1 on Vero cells (PrestoBlue); assay type: cell-based, herpes simplex virus type 1 (MacIntyre strain); conditions: at the non-toxic concentration of Table 1; MOI 0.1; compound and virus added simultaneously; parentheses = greater cell death than virus alone
Method: (§1) Viruses and Quantification. Herpes simplex virus type 1 (HSV-1, MacIntyre strain, ATCC, VR-539) or herpes simplex virus type 2 (HSV-2, ATCC, VR-734) were used in these studies. Virus titer was determined by plaque assay. Briefly, following 2 hour-adsorption of various virus dilutions onto a Vero cell monolayer in a 24-well plate, the medium was removed and cells were overlaid with 1.5% carboxymethylcellulose (Sigma Chemical Company, St. Louis, Mo.) and incubated 48 hours at 37° C. with 5% CO2. After incubation, cells were fixed with methanol, stained with Giemsa (Sigma Chemical Company, St. Louis, Mo.) and plaques were counted. Each virus dilution was prepared in quadruplicate.
(§2) Cytotoxicity and Virus Inhibition. All ginsenosides, isomers, and protopanaxadiols were evaluated for toxic effects on Vero cells prior to anti-viral testing. Cells were seeded at 5000 cells/well in a black 96-well plate with clear bottom in a volume of 100 μL and allowed to attach for 24 hours. The P. ginseng compounds were prepared in DMSO at 100 μM and were taken through serial two-fold dilutions to determine the concentration when the rate of cell death was less than 10% compared to control, untreated cells. Each dilution was tested in three wells and all assays were repeated three times. Following a 48 hour-incubation at 37° C. in 5% CO2, 11 μL of PrestoBlue (Invitrogen, Carlsbad, Calif.) was added to each well and the plate was incubated for an additional 30 minutes. PrestoBlue determines cell viability by changing from blue to red as resazurin is reduced to resorufin by viable cells. Following the PrestoBlue incubation, fluorescence was determined by spectrophotometric reading using Soft Max Pro (Molecular Diagnostics, San Jose, Calif., USA).
(§3) For cytotoxicity testing, 4 μL of dilutions of the ginsenosides or protopanaxadiols were added to 396 μL of medium 199 and 100 μL of this mixture was added to each of three wells. For anti-viral testing, 4 μL of the non-toxic reagent and 4 μL of HSV-1 or HSV-2 diluted to an MOI of 0.1 were added to 392 μL of medium 199 and 100 μL of this mixture was added to each of three wells. Virus inhibition was determined by comparing the cell death of reagent-exposed cells with cell death of control cells only receiving virus. The 50% inhibitory concentration (IC50) was determined through a series of two-fold dilutions and calculation by linear regression analysis.

Vero cells = experiment: Cytotoxicity on Vero cells (PrestoBlue); assay type: cell-based; conditions: for Cytotoxicity (non-toxic concentration): concentration causing less than 10% cell death compared with controls, Vero cells, 48 hour incubation, tested from 100 μM in 2-fold dilutions
Method: Cells. Vero cells (American Type Culture Collection (ATCC), Manassas, VA, CCL-81) were maintained in medium 199 (Sigma Chemical Company, St. Louis, MO) that was supplemented with 8% fetal bovine serum (Invitrogen, Carlsbad, CA), 1.25 μg/mL fungizone (Invitrogen, Carlsbad, CA) and penicillin-streptomycin, 1000 U/mL and 1 mg/mL respectively (Sigma Chemical Company, St. Louis, MO). Cells were passed weekly using 0.1% trypsin (Sigma Chemical Company, St. Louis, MO) to detach the cells from the flasks. Cell quantification was done by trypan blue exclusion.
as §2, with “The P. ginseng compounds were prepared in DMSO at 100 μM and were taken through serial two-fold dilutions to determine the concentration when the rate of cell death was less than 10% compared to control, untreated cells.” left out
as §3

HSV-1 [2] = experiment: Plaque reduction of HSV-1 on Vero cell monolayer; assay type: cell-based, herpes simplex virus type 1 (MacIntyre strain); conditions: valacyclovir 16 μM, 20(S)-Rg3 50 μM, about 50 PFU/well, 48 hours
Method: as §1
The plaque assay procedure also was used to evaluate the percent plaque reduction; the only procedural change was that a constant virus concentration was used (50 plaque forming units (PFU)/well). Plaque reduction was measured by comparing the control (virus only), with valacyclovir (16 μM) with virus or 20(S)-Rg3 (50 μM) with virus. Sample wells were evaluated in quadruplicate. Following the 2 hour-virus adsorption, the methylcellulose-medium containing the same concentrations of valacyclovir or Rg3 was added to the appropriate wells. After 48 hours, plaques were fixed, stained and counted.

HSV-1 [3] = experiment: Time studies of HSV-1 inhibition (PrestoBlue); assay type: cell-based, herpes simplex virus type 1; conditions: Human alphaherpesvirus 1; HSV-1 incubated with compound 0 to 4 hours prior to addition to cells; valacyclovir 16 μM; read-out: percent inhibition of HSV-1
Method: Time Studies. For virus inhibition studies described above, reagent 20(S)-Rg3 and virus were added to cells simultaneously. To evaluate the potential mode of action of Rg3, various combinations of valacyclovir, Rg3 and HSV-1 were tested at different time periods. The following combinations were evaluated at both one hour and four hours: • Virus applied to cells first (for one hour or four hours), followed by addition of valacyclovir, Rg3 or both valacyclovir and Rg3 to the cells; • Valacyclovir or Rg3 or both valacyclovir and Rg3 applied to cells first (for one or four hours), followed by virus; • Valacyclovir or Rg3 incubated together with virus first for one or four hours then added to cells.
All procedures described for evaluation of virus inhibition were followed in identical fashion as outlined for the PrestoBlue procedure except valacyclovir was used at a constant concentration of 16 μM and 20(S)-Rg3 at 50 μM.

coxsackie B 3 virus = conditions: 100 μg/mL; cited from earlier work
human rhinovirus 3 = conditions: 100 μg/mL; cited from earlier work

Compound: CC(C)=CCC[C@@](C)(O)[C@H]1CC[C@]2(C)[C@@H]1[C@H](O)C[C@@H]1[C@@]3(C)CC[C@H](O)C(C)(C)[C@@H]3CC[C@]12C [20(R)-protopanaxadiol, reference compound]
- Percent Inhibition of HSV-1 (HSV-1 [1]): 14.4%
- Cytotoxicity (non-toxic concentration) (Vero cells): 12.5 µM

Compound: CC(C)=CCC[C@](C)(O[C@@H]1O[C@H](CO[C@@H]2OC[C@@H](O)[C@H](O)[C@H]2O)[C@@H](O)[C@H](O)[C@H]1O)[C@H]1CC[C@]2(C)[C@@H]1[C@H](O)C[C@@H]1[C@@]3(C)CC[C@H](O[C@@H]4O[C@H](CO)[C@@H](O)[C@H](O)[C@H]4O[C@@H]4O[C@H](CO)[C@@H](O)[C@H](O)[C@H]4O)C(C)(C)[C@@H]3CC[C@]12C [Rb3]
- Percent Inhibition of HSV-1 (HSV-1 [1]): 30.9%

Compound: CC(C)[C@H](N)C(=O)OCCOCn1cnc2c(=O)[nH]c(N)nc21 [Valacyclovir, reference compound]
- Percent Cell Death (Vero cells; African green monkey, 48 h, 16 μM): 1.2±0.4%
- Percent Reduction of plaques compared to the control (HSV-1 [2]): 85.7%
- Number of Plaques (HSV-1 [2]; ± standard error): 8.1 ± 1.1
- inhibition at 16 µM (HSV-1 [3]): 52.3 to 54.7%

Compound: CC(C)=CCC[C@](C)(O[C@@H]1O[C@H](CO)[C@@H](O)[C@H](O)[C@H]1O)[C@H]1CC[C@]2(C)[C@@H]1[C@H](O)C[C@@H]1[C@@]3(C)CC[C@H](O)C(C)(C)[C@@H]3[C@@H](O[C@@H]3O[C@H](CO)[C@@H](O)[C@H](O)[C@H]3O)C[C@]12C [Rg1]
- Percent Inhibition of HSV-1 (HSV-1 [1]): 13.2%

Compound: 20(S)-Rh2
- Percent Inhibition of HSV-1 (HSV-1 [1]): 46.2%

Compound: CC(C)=CCC[C@](C)(O)[C@H]1CC[C@]2(C)[C@@H]1[C@H](O)C[C@@H]1[C@@]3(C)CC[C@H](O)C(C)(C)[C@@H]3[C@@H](O[C@@H]3O[C@H](CO)[C@@H](O)[C@H](O)[C@H]3O[C@@H]3O[C@@H](C)[C@H](O)[C@@H](O)[C@H]3O)C[C@]12C [Rg2]
- effect on coxsackie B 3 virus (coxsackie B 3 virus): inhibitory effects
- effect on human rhinovirus 3 (human rhinovirus 3): inhibitory effects

Compound: CC(C)=CCC[C@](C)(O)[C@H]1CC[C@]2(C)[C@@H]1[C@H](O)C[C@@H]1[C@@]3(C)CC[C@H](O)C(C)(C)[C@@H]3CC[C@]12C [20(S)-protopanaxadiol, reference compound]
- toxicity (Vero cells; 25 μM): non-toxic
- Cytotoxicity (non-toxic concentration) (Vero cells): 12.5 µM

Compound: CC(C)=CCC[C@@](C)(O)C1CC[C@]2(C)C1[C@H](O)CC1[C@@]3(C)CC[C@H](O[C@@H]4OC(CO)[C@@H](O)[C@@H](O)C4O[C@@H]4OC(CO)[C@@H](O)[C@@H](O)C4O)C(C)(C)C3CC[C@]12C (stereo partly drawn) [20(R)-Rg3, 20(R)-ginsenoside-Rg3]
- Percent Inhibition of HSV-1 (HSV-1 [1]): 22.7%

Compound: CC(C)=CCC[C@](C)(O[C@@H]1O[C@H](CO[C@@H]2OC[C@H](O)[C@H](O)[C@H]2O)[C@@H](O)[C@H](O)[C@H]1O)[C@H]1CC[C@]2(C)[C@@H]1[C@H](O)C[C@@H]1[C@@]3(C)CC[C@H](O[C@@H]4O[C@H](CO)[C@@H](O)[C@H](O)[C@H]4O[C@@H]4O[C@H](CO)[C@@H](O)[C@H](O)[C@H]4O)C(C)(C)[C@@H]3CC[C@]12C [Rb2]
- Percent Inhibition of HSV-1 (HSV-1 [1]): 26.4%

Compound: CC(C)=CCC[C@](C)(O[C@@H]1O[C@H](CO[C@@H]2O[C@H](CO)[C@@H](O)[C@H](O)[C@H]2O)[C@@H](O)[C@H](O)[C@H]1O)[C@H]1CC[C@]2(C)[C@@H]1[C@H](O)C[C@@H]1[C@@]3(C)CC[C@H](O[C@@H]4O[C@H](CO)[C@@H](O)[C@H](O)[C@H]4O[C@@H]4O[C@H](CO)[C@@H](O)[C@H](O)[C@H]4O)C(C)(C)[C@@H]3CC[C@]12C [Rb1]
- Percent Inhibition of HSV-1 (HSV-1 [1]): 23% and 23.3%
